Patent publication US20130011376A1, “Methods for Enhancing Natural Killer Cell Proliferation and Activity” (GAMIDA CELL LTD., priority 2009, published 2013)

What was measured:
Type in all cases: cell-based, human
[1] = system: bone marrow derived CD56+ cells; experiment: Proliferation and subsets of bone marrow derived CD56+ cells in culture
Protocol: Bone marrow (BM) and peripheral blood (PB) cells were layered on a Ficoll-Hypaque gradient (1.077 g/mL; Sigma), and centrifuged at 800×g for 30 min. The mononuclear cells in the interface layer were collected and washed three times in phosphate-buffered saline (PBS) (Biological Industries, Israel) containing 0.5% HSA.
Cord blood (CB), bone marrow (BM) or peripheral blood (PB) cells were layered on a Ficoll-Hypaque gradient (1.077 g/mL; Sigma), and centrifuged at 800×g for 30 minutes for separation of the mononuclear cells. The cells in the interface layer were collected and washed three times in phosphate-buffered saline (PBS) (Biological Industries, Israel) containing 0.5% HSA. To purify the CD56+ cells, the mononuclear cell fraction was subjected to two cycles of immunomagnetic bead separation, using a “MiniMACS or CliniMACS CD56 progenitor cell isolation kit” (Miltenyi Biotec Bergisch, Gladbach, Germany), according to the manufacturer's recommendations. Briefly, CD56+ cells are reacted with CD56+ specific magnetic immunobeads, separated and with a magnetic separator, and purified from unbound cells by washing. The purity of the CD56+ population thus obtained is approximately 92%, as evaluated by flow cytometry.
2. Purified CD56+ or CD56+CD3− cells from total nuclear or mononuclear cells or from the fraction depleted from CD34+ or CD133+ cells were cultured in culture bags, T-Flasks or 24 well plates at a concentration of 1-100×10^4 cells/ml in MEMα/10% FCS or CellGro SCGM (Cell Genix)/5% Human Serum/LiforCell® FBS Replacement (Lifeblood Products) containing the following human recombinant cytokines:, interleukin-2 (IL-2) (5-50 ng/ml), interleukin-15 (IL-15), FLT-3 or SCF or FLT3 and SCF or IL-2 and IL-15 or IL-2 only (Perpo Tech, Inc., Rocky Hill, N.J., USA), with or without nicotinamide, and incubated at 37° C. in a humidified atmosphere of 5% CO2 in air. The cultures were topped up once or twice a week with the same volume of fresh medium containing growth factors with or without nicotinamide. Eventually cultures can be supplemented once or several times a week with IL-2 and or IL-2 and IL-15. To estimate the number of cells in culture, cell samples were stained with trypan blue for counting. At various time points, samples were taken for FACS analysis to assay the relative fractions of NK cells, CD56+CD3−, CD56+CD3+, CD34+CD56+, CD56+CD16+ and/or CD56+ NKG2A cells.
To determine total number of cells on day 7, 14 and 21, the cell count/ml was multiplied by the volume of the culture medium. In order to determine the number of NK cells in culture, the total number of cells in culture was multiplied by the percent of CD56+/CD3− cells measured with the FACS on days 7, 14 or 21. To measure fold expansion, total number of NK cells on days 7, 14 and 21 was divided by total number of NK cells seeded in culture on day-0.
The cells were washed with a PBS solution containing 1% BSA, and stained (at 4° C. for 30 min) with fluorescein isothiocyanate (FITC)- or phycoerythrin (PE)-conjugated antibodies or allophycocyanin (APC). The cells were then washed in the above buffer and analyzed using a FACScalibur® flow cytometer (Becton Dickinson, San Jose, Calif., USA). The cells were passed at a rate of up to 1000 cells/second, using a 488 nm or 661 nm argon laser beam as the light source for excitation. Emission of 10^4 cells was measured using logarithmic amplification, and analyzed using the CellQuest software (Becton Dickinson). Cells stained with FITC, PE and APC-conjugated isotype control antibodies were used to determine background fluorescence.

[2] = system: cord-blood derived CD56+ cells; experiment: Transwell chemotaxis (migration) assay
Protocol: Chemotaxis (“migration”) assay: Migration response (chemotaxis) of human NK cells was assayed by Transwell migration assay (Costar, Cambridge, Mass.; 6.5-mm diameter, 5-μm pore size). Briefly, 100 μL chemotaxis buffer (RPMI 1640, 1% FCS) containing 2×10^5 NK cells was added to the upper chamber, and 0.5 mL chemotaxis buffer with or without 250 ng/ml stromal-derived factor CXCL12 (“SDF-1”) (R&D Systems) was added to the bottom chamber. Cells migrating within 4 hours to the bottom chamber of the “transwell” were counted for 60 seconds using FACScalibur (Becton Dickinson Immunocytometry Systems).

K562 target cells = experiment: Killing assay, NK cells expanded with irradiated feeder cells; conditions: 5:1, 2.5:1 and 1:1 NK cells per target cell
Protocol: “Killing” assay: NK cells (effectors cells=E) are combined with K562 or BL2 (target cells=T), or bi-phenotypic leukemia cells at different E to T ratio (E:T). BL2 or K562, or bi-phenotypic leukemia target cells in PBS were labeled with 1 ng/ml CFSE (Invitrogen) for 15 min at 37° C. Calf Serum was added to the cells for 15 minutes, the cells were then washed and resuspended in RPMI medium. 100 μL of bi-phenotypic leukemia, BL2 or K562 cells were placed in a 96 round bottom plate at a concentration of 5×10^3 cells per well. 100 μL of non-stained NK cells were added to the bi-phenotypic leukemia, BL2 or K562 cells at a E:T ratio of 1:1, 2.5:1, 5:1, 10:1 or 20:1 (5×10^3, 1.25×10^4, 2.5×10^4, 5×10^4 and 1×10^5 cells/well, respectively, as indicated). Between 2-48 hours later. Killing of target cells in cell lines such as K562 and BL-2 was determined by FACS as a percentage propidium-iodine (PI)-positive (dead) CFSE-labeled cells. Killing of the primary leukemia cells was determined by counting with the FACS the number of CFSE stained cells that remained in the culture after their culture with the NK cells. A lower number of CFSE+ cells is indicative of higher level of killing.
Peripheral blood-derived mononuclear cell fractions were CD3 depleted and then selected for CD56+ cells by immunobead purification. […]

[3] = system: CD3+ T cells and CD3+CD56+ NKT cells; experiment: T and NKT cell fractions in peripheral blood NK cell cultures (FACS); conditions: increasing nicotinamide concentration (2.5 to 7.5 mM), three weeks
Protocol: Purified CD56+ or CD56+CD3− cells from total nuclear or mononuclear cells or from the fraction depleted from CD34+ or CD133+ cells were cultured in culture bags, T-Flasks or 24 well plates at a concentration of 1-100×10^4 cells/ml in MEMα/10% FCS or CellGro SCGM (Cell Genix)/5% Human Serum/LiforCell® FBS Replacement (Lifeblood Products) containing the following human recombinant cytokines:, interleukin-2 (IL-2) (5-50 ng/ml), interleukin-15 (IL-15), FLT-3 or SCF or FLT3 and SCF or IL-2 and IL-15 or IL-2 only (Perpo Tech, Inc., Rocky Hill, N.J., USA), with or without nicotinamide, and incubated at 37° C. in a humidified atmosphere of 5% CO2 in air. The cultures were topped up once or twice a week with the same volume of fresh medium containing growth factors with or without nicotinamide. […]
The cells were washed with a PBS solution containing 1% BSA, and stained (at 4° C. for 30 min) with fluorescein isothiocyanate (FITC)- or phycoerythrin (PE)-conjugated antibodies or allophycocyanin (APC). The cells were then washed in the above buffer and analyzed using a FACScalibur® flow cytometer (Becton Dickinson, San Jose, Calif., USA). […] Emission of 10^4 cells was measured using logarithmic amplification, and analyzed using the CellQuest software (Becton Dickinson). Cells stained with FITC, PE and APC-conjugated isotype control antibodies were used to determine background fluorescence. […]

[4] = 1 mM, 2.5 mM and 5 mM nicotinamide, 7 days

For `NC(=O)c1cccnc1` [nicotinamide], the “proliferation of CD56+CD3+ NKT cells” value [1, 4] was “decreased proliferation”, the “proliferation of the CD56+CD3- NK cell subset” value [1, 4] was “enhancement of proliferation” and the “proliferation of CD56+CD16+ NK cells” value ([1]; 2.5 mM and 5 mM nicotinamide, 7 days) was “most enhanced”. For the same molecule, the “increase of NK cell proliferation between 14 and 21 days” value ([1]; 2.5 mM nicotinamide) was 50%, the “fraction of NK cells displaying the CD56+CD16+ phenotype vs cytokines alone” value ([1]; 2.5 mM nicotinamide, 14 and 21 days) was “significant increase” and the “proliferation of NK cells (fold increase)” value ([1]; 2.5 mM nicotinamide, 14 days) was 8 fold increase. For the same molecule, the “proliferation of NK cells (fold increase)” value ([1]; 2.5 mM nicotinamide, 21 days) was 12 fold increase, the “CD56+CD3- NK cells among cultured cells (dominance over CD56+CD3+ NKT cells)” value ([1]; nicotinamide treated cultures, 21 days) was “greater than 80%” and the “migration in response to SDF stimulus” value ([2]; cells cultured with 2.5 or 5 mM nicotinamide, 250 ng/ml SDF) was “greatly enhanced”. The “motility in the absence of SDF stimulus” value ([2]; nicotinamide-cultured CD56+ cells, no SDF) was “enhanced motility”, the ex-vivo killing potential (K562 target cells) was “increased cytotoxic capability” and the “fraction of CD3+ T cells” value [3] was “reduction”. The “fraction of CD3+CD56+ NKT cells” value [3] was “reduction”.
